Where no end group is shown, it is not given here.
Key:
[1] = tested on: extracellular domain of BAK1 (BAK1-ECD); experiment: Yeast two-hybrid with BAK1-ECD; assay type: binding, Arabidopsis thaliana; conditions: yeast AH109, medium lacking Leu, Trp, His
Source text: Fig 6 AtRALF1 interacts physically with BAK1 protein. (A) The active AtRALF1 peptide interacts with the extracellular domain (ECD) of BAK1 (BAK1-ECD) in yeast. The AtRALF1 protein fused to the GAL4 DNA-binding domain (AtRALF1-pGBKT7) was used as bait to test its interaction with the extracellular domain of the proteins fused to the GAL4 activation domain (pGADT7): BAK1 (BAK1-ECD), BAK7 (BAK7-ECD), BRI1 (BRI1-ECD) and FLS2 (FLS2-ECD). (B) Blueprint showing the truncated proteins from the extracellular domain of BAK1 tested in the two-hybrid assay. The extracellular domain of BAK1 comprises leucine zippers (LZ), 5 leucine rich-regions (LRRs) and a proline-rich region (pro-rich). (C) AtRALF1-pGBKT7 was used as bait to test its interaction with truncated proteins fused to the GAL4 activation domain (pGADT7). […] HA-BAK1-ECD was detected with an anti-HA antibody. AtRALF1 was detected with an anti-RALF antibody. […] BAK1-GFP was detected with an anti-GFP antibody. […]
The coding regions of the mature peptides AtRALF1 and AtRALF34 were amplified from Arabidopsis genomic DNA and fused to the GAL4 DNA-binding domain and the MYC epitope tag using the NdeI/BamHI sites in the pGBKT7 (Clontech) vector. […] The proteins fused to the HA and MYC epitope tags were detected by protein blotting. […]

[2] = tested on: HA-BAK1-ECD; experiment: Co-immunoprecipitation in vitro; assay type: binding, Arabidopsis thaliana; conditions: 100 nM each protein, pH 6.3, overnight 4 °C, agarose anti-HA beads
Method: The purified recombinant proteins AtRALF1 and HA-BAK1-ECD and the synthetic peptides RALF1(9–49) and RALF1(I6A) were combined in 200 μl of interaction buffer pH 6.3 (100 mM NaCl; 1 mM PMSF; 0.5%Triton X; 2.7 mM KCl; 8 mM NaH2PO4; 2 mM KH2PO4) overnight at 4 °C. A 100-nM concentration of each protein was used. This solution was incubated with agarose anti-HA beads (EZview Red Anti-HA Affinity Gel, Sigma) for 30 min at 4 °C to immunoprecipitate the proteins, washed 5 times with interaction buffer, eluted in 1X SDS sample buffer containing 10% β-mercaptoethanol and applied to an SDS-PAGE gel. The immunoprecipitated HA-BAK1-ECD and co-immunoprecipitated AtRALF1 were analyzed by protein blotting as described. The primary and secondary antibodies used to detect AtRALF1 were anti-AtRALF1 (1:10,000, Celula B, Immunology Laboratory, UFRGS, Brazil) and goat anti-rabbit HRP-conjugated secondary antibody (1: 10,000, BioRad), respectively.

[3] = tested on: intact Arabidopsis seedlings; experiment: Binding assay with acridinium-labeled AtRALF34, intact seedlings; design: species or system Arabidopsis thaliana; conditions: 10-fold excess of unlabeled AtRALF1
Method: Arabidopsis seedlings were grown for 5 days on vertical plates. Roots were homogenized in extraction buffer [300 mM sucrose, 100 mM Tris-HCl pH 7.5, 25 mM EDTA, 25 mM NaF, 1 mM Na2MoO4, 1 mM PMSF and protease inhibitor cocktail (Roche), adjusted to pH 6.2], and the homogenate was spun at 2,000 x g for 10 min at 4 °C. The supernatant was recovered and centrifuged at 100,000 x g for 50 min at 4 °C to precipitate the microsomal pellet. The pellet was resuspended in the extraction buffer plus 0.5% Triton-X. Seedlings or microsomal fractions were placed in 200 μl of medium and incubated with 7 nM acridinium-labeled peptide (acriAtRALF1 or acriAtRALF34) and different concentrations of AtRALF1, AtRALF34 or RALF1(9–49) for 15–20 min at 4 °C on a shaker. After incubation, the seedlings or microsomal fractions were washed three times with the same medium. Unless indicated otherwise, five entire seedlings and approximately 10 ng of microsomal fractions were used per treatment. The resulting luminescence emissions from the acridinium were measured using a microplate reader (Biotec ELx 800) at 2 s after injecting 50 μl of a solution containing 20 mM H2O2 in 0.1 M NaOH. These experiments were repeated at least three times using independent biological replicates. Duplicates were used for each concentration or treatment. The data shown are from one representative experiment. […]

Row | Substance | interaction with BAK1-ECD (Y2H complementation) [1] | co-immunoprecipitation with HA-BAK1-ECD [2] | effect of unlabeled AtRALF1 on total acriAtRALF34 binding [3]
1 | AtRALF1: root-specific RALF isoform in Arabidopsis; recombinant peptide hormone produced in E. coli (ATTKYISYQSLKRNSVPCSRRGASYYNCQNGAQANPYSRGCSKIARCRS; ends and bridges not checked; cysteine pairing not given here) | able to complement only the BAK1-ECD construct | co-immunoprecipitated | did not alter the total binding
2 | RALF1(9–49): inactive AtRALF1 peptide which has a deletion of the first 8 amino acids (QSLKRNSVPCSRRGASYYNCQNGAQANPYSRGCSKIARCRS; ends and bridges not checked; cysteine pairing not given here; UniProt Q9SRY3 80-120, looked up, fragment) | – | did not co-immunoprecipitate with BAK1 | –

Reference: PMC5656322, “BAK1 is involved in AtRALF1-induced inhibition of root cell expansion” (PLoS Genetics, 2017)
